Experimental data: publication PMC8199001, “Design, Synthesis, and Biological Evaluation of Novel 6H-Benzo[c]chromen-6-one Derivatives as Potential Phosphodiesterase II Inhibitors” (International Journal of Molecular Sciences, 2021)
“Also recorded” adds a separate entry of the source.

Legend:
PDE2 = PDE2 (Homo sapiens, UniProt O00408); assay: In vitro PDE2 enzymatic inhibition assay (Bio-cAMP substrate, AlphaScreen detection); type: biochemical; details: for PDE2 inhibitory activity (result in words): enzyme level;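 as to all read-outs here: enzyme reaction run 0.5 h, then anti-cAMP acceptor and streptavidin donor beads added for 1 h in the dark before plate reading, compounds serially diluted from DMSO stock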
Chain of PDE2 (O00408 whole entry): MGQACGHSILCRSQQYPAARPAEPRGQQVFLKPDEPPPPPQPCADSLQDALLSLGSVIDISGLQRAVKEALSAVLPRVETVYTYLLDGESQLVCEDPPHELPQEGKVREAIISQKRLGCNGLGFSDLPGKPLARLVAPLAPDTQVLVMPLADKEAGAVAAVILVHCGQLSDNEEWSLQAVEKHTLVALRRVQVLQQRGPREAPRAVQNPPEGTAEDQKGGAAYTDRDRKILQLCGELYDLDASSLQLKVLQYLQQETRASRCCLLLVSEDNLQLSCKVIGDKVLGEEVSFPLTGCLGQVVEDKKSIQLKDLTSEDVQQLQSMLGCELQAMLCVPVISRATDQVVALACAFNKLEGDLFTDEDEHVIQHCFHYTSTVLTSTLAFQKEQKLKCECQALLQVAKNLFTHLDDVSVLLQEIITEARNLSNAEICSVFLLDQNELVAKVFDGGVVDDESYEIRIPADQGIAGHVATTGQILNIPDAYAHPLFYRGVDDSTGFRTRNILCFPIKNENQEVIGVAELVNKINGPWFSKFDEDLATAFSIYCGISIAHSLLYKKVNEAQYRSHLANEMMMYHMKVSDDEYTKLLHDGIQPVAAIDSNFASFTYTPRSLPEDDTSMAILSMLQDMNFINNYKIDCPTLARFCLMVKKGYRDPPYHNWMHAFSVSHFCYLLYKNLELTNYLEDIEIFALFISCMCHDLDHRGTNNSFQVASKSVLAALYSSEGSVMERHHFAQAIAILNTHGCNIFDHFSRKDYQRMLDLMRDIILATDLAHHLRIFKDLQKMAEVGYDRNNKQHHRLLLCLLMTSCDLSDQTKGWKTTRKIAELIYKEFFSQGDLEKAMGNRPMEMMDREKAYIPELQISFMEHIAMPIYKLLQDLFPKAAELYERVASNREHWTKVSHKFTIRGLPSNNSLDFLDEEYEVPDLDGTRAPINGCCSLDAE
Experimental: Preparation of 1*Rection Buffer: we took 1 mL 10*Rection Buffer, added 9 mL ultra-pure water to swirl and mix well, and put it on ice; preparation of PDE2 solution: 210 μL of 1*Rection Buffer were added into a centrifuge tube, then 30 μL PDE2 were added, mixed well, equal to 8-times dilution, and placed on ice; preparation of compound solution with gradient concentration: DMSO was used as the solvent to prepare 10 mM compound solution, and then diluted with 1*Rection Buffer.
We took 2 μL of the diluted compound solution of each concentration into the microplate, added 4 μL PDE2 solution, numbered them A1–A9, added 2 μL 1*Rection Buffer and 4 μL PDE2 into A10, added 2 μL compound solution and 4 μL 1*Rection Buffer to A11, added 6 μL 1*Rection Buffer to A13, and ensured the three groups are parallel to each other. […] The reaction time was 0.5 h in the microporous plate thermostatic oscillator.
Anti-Camp Alohascreen Acceptor and Streptavidin Coated Donor Bead were purchased from Perkin Elmer Company according to response volume: 1* Immunoassay Buffer 549.32 μL and 3.70 μL anti-cAMP AlohaScreen Acceptor were collected under dark conditions. We took 1.98 μL Streptavidin coated Donor Bead, mixed well, added 15 μL mixture to each well after 1 h reaction, and reacted it in the dark for 1 h. After the reaction, we tested it with multilabel microplate detector.

[1] = in vitro, Bio-cAMP as substrate, mean of at least three experiments

Structure (SMILES)	IC50 (PDE2; [1]) [µM]	melting point [°C]	PDE2 inhibitory activity (result in words) (PDE2)	PDE2 IC50 (PDE2; [1])
CC(C)Oc1ccc2c(c1)oc(=O)c1ccccc12 [Compound 1c, 3-Isopropoxy-6H-benzo[c]chromen-6-one]	25.8 ± 5.45	58.7 to 59.1	–	–
CCOC(=O)COc1ccc2c(c1)oc(=O)c1ccccc12 [Compound 1h, ethyl 2-((6-oxo-6H-benzo[c]chromen-3-yl)oxy)acetate]	18.7 ± 2.72	124.7 to 125.8	good PDE2 inhibitory activity	–
O=c1oc2cc(OCc3cccnc3)ccc2c2ccccc12 [Compound 1r, 3-(Pyridin-3-ylmethoxy)-6H-benzo[c]chromen-6-one]	27.6 ± 2.14	–	–	–
COc1ccc2c(c1)c(=O)oc1cc(OCCn3cccn3)ccc12 [Compound 2w, 3-(2-(1H-pyrazol-1-yl)ethoxy)-8-methoxy-6H-benzo[c]chromen-6-one]	> 50	159 to 161.1	–	–
COc1ccc2c(c1)c(=O)oc1cc(OCC3CCCCC3)ccc12 [Compound 2n, 3-(Cyclohexylmethoxy)-8-methoxy-6H-benzo[c]chromen-6-one]	> 50	139.8 to 140.1	–	–
CCC(C)Oc1ccc2c(c1)oc(=O)c1cc(OC)ccc12 (centres unmarked) [Compound 2d, 3-(Sec-butoxy)-8-methoxy-6H-benzo[c]chromen-6-one]	> 50	64.5 to 66.7	–	–
Cc1cc(COc2ccc3c(c2)oc(=O)c2ccccc23)n(C)n1 [Compound 1q, 3-((1,3-Dimethyl-1H-pyrazol-5-yl)methoxy)-6H-benzo[c]chromen-6-one]	> 50	165.1 to 167.6	–	–
O=c1oc2cc(OCC3CCOCC3)ccc2c2ccccc12 [Compound 1i, 3-((tetrahydro-2H-pyran-4-yl)methoxy)-6H-benzo[c]chromen-6-one]	17.9 ± 1.87	133 to 134.8	good PDE2 inhibitory activity	–
COc1ccc2c(c1)c(=O)oc1cc(OC(C)C)ccc12 [Compound 2g, 3-Isopropoxy-8-methoxy-6H-benzo[c]chromen-6-one]	30.3 ± 7.38	88.3 to 90.7	–	–
O=c1oc2cc(OCCO)ccc2c2ccccc12 [Compound 1m, 3-(2-Hydroxyethoxy)-6H-benzo[c]chromen-6-one]	> 50	125.7 to 126.4	–	–
CCCOc1ccc2c(c1)oc(=O)c1cc(OC)ccc12 [Compound 2c, 8-Methoxy-3-propoxy-6H-benzo[c]chromen-6-one]	> 50	109.3 to 111.6	–	–
CCCCCOc1ccc2c(c1)oc(=O)c1ccccc12 [Compound 1g, 3-(pentyloxy)-6H-benzo[c]chromen-6-one]	> 50	69.4 to 71.8	–	–
CCCCOc1ccc2c(c1)oc(=O)c1cc(OC)ccc12 [Compound 2e, 3-Butoxy-8-methoxy-6H-benzo[c]chromen-6-one]	17.8 ± 4.07	102.5 to 104.4	good PDE2 inhibitory activity	–
COc1ccc2c(c1)c(=O)oc1cc(OCc3ccccc3)ccc12 [Compound 2q, 3-(Benzyloxy)-8-methoxy-6H-benzo[c]chromen-6-one]	23.3 ± 4.28	141.7 to 142.5	–	–
COc1ccc2c(c1)c(=O)oc1cc(OCCC3OCCO3)ccc12 [Compound 2o, 3-(2-(1,3-Dioxolan-2-yl)ethoxy)-8-methoxy-6H-benzo[c]chromen-6-one]	> 50	151.6 to 153.2	–	–
O=c1oc2cc(OCC3CCCO3)ccc2c2ccccc12 (centres unmarked) [Compound 1n, 3-((Tetrahydrofuran-2-yl)methoxy)-6H-benzo[c]chromen-6-one]	27.5 ± 1.49	82.8 to 84.1	–	–
CCCOc1ccc2c(c1)oc(=O)c1ccccc12 [Compound 1d, 3-Propoxy-6H-benzo[c]chromen-6-one]	> 50	–	–	–
CCCCCOc1ccc2c(c1)oc(=O)c1cc(OC)ccc12 [Compound 2f, 8-Methoxy-3-(pentyloxy)-6H-benzo[c]chromen-6-one]	> 50	73.1 to 75.5	–	–
O=c1oc2cc(OCCn3cccn3)ccc2c2ccccc12 [Compound 1k, 3-(2-(1H-pyrazol-1-yl)ethoxy)-6H-benzo[c]chromen-6-one]	> 50	164.3 to 166.6	–	–
O=c1oc2cc(OCC3CCCC3)ccc2c2ccccc12 [Compound 1s, 3-(Cyclopentylmethoxy)-6H-benzo[c]chromen-6-one]	8.14 ± 0.54	90.6 to 91.2	good PDE2 inhibitory activity	–
COc1ccc2c(c1)c(=O)oc1cc(OCc3ccc(CO)cc3)ccc12 [Compound 2r, 3-((4-[Hydroxymethyl]benzyl)oxy)-8-methoxy-6H-benzo[c]chromen-6-one]	> 50	192.4 to 194.6	–	–

Structure (SMILES)	IC50 (PDE2; [1]) [µM]	melting point [°C]	PDE2 inhibitory activity (result in words) (PDE2)	PDE2 IC50 (PDE2; [1])
O=c1oc2cc(OCc3ccc(CO)cc3)ccc2c2ccccc12 [Compound 1t, 3-((4-[Hydroxymethyl]benzyl)oxy)-6H-benzo[c]chromen-6-one]	> 50	147 to 149.2	–	–
CCOc1ccc2c(c1)oc(=O)c1ccccc12 [Compound 1b, Ethoxy-6H-benzo[c]chromen-6-one]	25.4 ± 5.13	115.2 to 117.7	–	–
COc1ccc2c(c1)oc(=O)c1ccccc12 [Compound 1a, 3-Methoxy-6H-benzo[c]chromen-6-one]	28.8 ± 7.8	–	–	–
COc1cc(COc2ccc3c(c2)oc(=O)c2cc(OC)ccc23)cc(OC)c1 [Compound 2s, 3-((3,5-Dimethoxybenzyl)oxy)-8-methoxy-6H-benzo[c]chromen-6-one]	> 50	153.6 to 155.3	–	–
O=c1oc2cc(Oc3ncccn3)ccc2c2ccccc12 [Compound 1l, 3-(Pyrimidin-2-yloxy)-6H-benzo[c]chromen-6-one]	19.3 ± 2.38	174 to 176.6	good PDE2 inhibitory activity	–
CCC(C)Oc1ccc2c(c1)oc(=O)c1ccccc12 (centres unmarked) [Compound 1e, 3-(Sec-butoxy)-6H-benzo[c]chromen-6-one]	37.7 ± 4.9	73.2 to 75.8	–	–
COc1ccc2c(c1)c(=O)oc1cc(OCc3cc(C)nn3C)ccc12 [Compound 2u, 3-((1,3-Dimethyl-1H-pyrazol-5-yl)methoxy)-8-methoxy-6H-benzo[c]chromen-6-one]	29.4 ± 5.01	184.6 to 186.6	–	–
O=c1oc2cc(OCC3OCCO3)ccc2c2ccccc12 [Compound 1o, 3-((1,3-Dioxolan-2-yl)methoxy)-6H-benzo[c]chromen-6-one]	> 50	135.6 to 137.8	–	–
COc1ccc2c(c1)c(=O)oc1cc(OCC3CCCO3)ccc12 (centres unmarked) [Compound 2l, 8-Methoxy-3-((tetrahydrofuran-2-yl)methoxy)-6H-benzo[c]chromen-6-one]	> 50	113.1 to 115.5	–	–
COc1ccc2c(c1)c(=O)oc1cc(Oc3ncccn3)ccc12 [Compound 2v, 8-Methoxy-3-(pyrimidin-2-yloxy)-6H-benzo[c]chromen-6-one]	–	212.3 to 214	–	–
COc1ccc2c(c1)oc(=O)c1cc(OC)ccc12 [Compound 2a, 3,8-Dimethoxy-6H-benzo[c]chromen-6-one]	> 50	–	–	–
COc1ccc2c(c1)c(=O)oc1cc(OCC3OCCO3)ccc12 [Compound 2m, 3-((1,3-Dioxolan-2-yl)methoxy)-8-methoxy-6H-benzo[c]chromen-6-one]	> 50	147.9 to 150.1	–	–
COc1ccc2c(c1)c(=O)oc1cc(OCCSC)ccc12 [Compound 2i, 8-Methoxy-3-(2-(methylthio)ethoxy)-6H-benzo[c]chromen-6-one]	14.9 ± 1.78	110.1 to 111.8	best PDE2 inhibitory activity; also recorded: good PDE2 inhibitory activity	–
COc1ccc2c(c1)c(=O)oc1cc(OCC3CCOCC3)ccc12 [Compound 2p, 8-Methoxy-3-((tetrahydro-2H-pyran-4-yl)methoxy)-6H-benzo[c]chromen-6-one]	25.2 ± 6.91	168.1 to 168.5	–	–
COc1cc(COc2ccc3c(c2)oc(=O)c2ccccc23)cc(OC)c1 [Compound 1p, 3-((3,5-Dimethoxybenzyl)oxy)-6H-benzo[c]chromen-6-one]	> 50	133.8 to 135	–	–
O=c1oc2cc(OCCN3CCOCC3)ccc2c2ccccc12 [Compound 1u, 3-(2-Morpholinoethoxy)-6H-benzo[c]chromen-6-one]	> 50	100.8 to 102.8	–	–
CCOc1ccc2c(c1)oc(=O)c1cc(OC)ccc12 [Compound 2b, 3-Ethoxy-8-methoxy-6H-benzo[c]chromen-6-one]	> 50	141.1 to 143.8	–	–
COc1ccc2c(c1)c(=O)oc1cc(OCC3CCCC3)ccc12 [Compound 2k, 3-(Cyclopentylmethoxy)-8-methoxy-6H-benzo[c]chromen-6-one]	> 50	–	–	–
COc1ccc2c(c1)c(=O)oc1cc(OCc3ccccc3F)ccc12 [Compound 2t, 3-((2-Fluorobenzyl)oxy)-8-methoxy-6H-benzo[c]chromen-6-one]	–	203.6 to 204.9	–	Insoluble
COc1ccc2c(c1)c(=O)oc1cc(OCCO)ccc12 [Compound 2h, 3-(2-Hydroxyethoxy)-8-methoxy-6H-benzo[c]chromen-6-one]	> 50	166.8 to 168	–	–
CCOC(=O)COc1ccc2c(c1)oc(=O)c1cc(OC)ccc12 [Compound 2j, Ethyl 2-((8-methoxy-6-oxo-6H-benzo[c]chromen-3-yl)oxy)acetate]	> 50	–	–	–
